US20150296779A1, “SUBSTITUTED DIHYDROPYRIDINES FOR SOMATIC EMBRYOGENESIS IN PLANTS” (STICHTING DIENST LANDBOUWKUNDIG ONDERZOEK, priority 2012, published 2015)

Experiments:
Format in all cases: in vivo, Arabidopsis thaliana
Arabidopsis seedlings [1] = assay: Dose-response analysis for somatic embryo induction in containers (circa 30 seeds in 30 ml medium; FIG. 2, FIG. 4)
From the text: (§1) The chemical screen was based on a modified version of an Arabidopsis somatic embryogenesis protocol that uses germinated seeds as explants (see Kobayashi et al., 2010 Kobayashi T, Nagayama Y, Higashi K and Kobayashi M. (2010). Establishment of a tissue culture system for somatic embryogenesis from germinating embryos of Arabidopsis thaliana Plant Biotech. 27: 359-364). In the original protocol, seeds were germinated on solid medium for one day, then the embryos were removed from the seed coat and transferred to solid media containing 4.5 μM 2,4-D to stimulate somatic embryo development. In this example, the protocol is simplified by germinating and culturing the seeds continuously in liquid medium containing 1 μM 2,4-D. Under optimized culture conditions (circa 30 seeds in 30 ml medium) approximately 18% of Col0 seeds form somatic embryos.
(§2) Approximately 10 surface-sterilized Columbia (Col-0) seeds were added to each well. The seeds were stratified at 4° C. in the dark for two days and then grown in on a rotary shaker (100 rpm/min) on a 16 h/8 h day/night cycle at 25° C. The number of seedlings that formed somatic embryos was counted two weeks later. […] Positive compounds were analysed using ChemMine (http://bioweb.ucr.edu/ChemMineV2/), ChemSpider (http://www.chemspider.com/) and the ZINC database (http://zinc.docking.org) for analogues with a putative biological function. […]

Arabidopsis seedlings [2] = assay: Testing of compounds for somatic embryogenesis activity in the presence of 2,4-D (FIG. 1); conditions: in the presence of 1 μM 2,4-D
From the text: as §1, with “embryos. […]” for “embryos.”
as §2, with “The seeds were stratified at 4° C. in the dark for two days and then grown in on a rotary shaker (100 rpm/min) on a 16 h/8 h day/night cycle at 25° C.” left out

Arabidopsis seedlings [3] = assay: Somatic embryogenesis at increasing 2,4-D concentrations with or without 25 μM C#5 (FIG. 3)
Description: All subsequent experiments were performed under the conditions described above, but using 100 ml containers (Greiner) containing 30 ml of medium media using approximately 30 seeds/container. All hormones were ordered from Duchefa and Dicamba from Sigma-Aldrich.
2,4-D is widely used to induce somatic embryogenesis from plant explant. In Arabidopsis immature zygotic embryos occasionally form somatic embryos when grown in basal medium, while germinating embryos or other vegetative tissues are unable to form embryos.

Structure (SMILES)	Col0 seeds that form somatic embryos (Arabidopsis seedlings [1]; liquid medium containing 1 μM 2,4-D alone, circa 30 seeds in 30 ml medium)	seedlings with somatic embryo development (Arabidopsis seedlings [1]; at about 10 to about 50 μM compound, compared to circa 5% of seedlings in the control)	level of SE, as measured by the percentage of seedlings with somatic embryos (Arabidopsis seedlings [2])	somatic embryo formation in the absence of 2,4-D (Arabidopsis seedlings [3]; 25 μM C#5, 0 μM 2,4-D)	somatic embryo formation at all of the tested 2,4-D concentrations (Arabidopsis seedlings [3]; 25 μM C#5, 2,4-D up to 2 μM, versus control (2,4-D only))	threshold concentration of 2,4-D needed to achieve enhanced SE (Arabidopsis seedlings [3]; using 25 μM of C#5, seedlings grown in containers)
O=C(O)COc1ccc(Cl)cc1Cl [2,4-D, 2,4-dichlorophenoxyacetic acid, reference compound]	approximately 18%					
CC1=C(C(=O)OC2CCCC2)C(c2ccncc2)C2=C(CC(C)(C)CC2=O)N1 (stereo not drawn) [C#5, cyclopentyl 2,7,7-trimethyl-5-oxo-4-(4-pyridinyl)-1,4,5,6,7,8-hexahydro-3-quinolinecarboxylate]		about 50%	high percentage	not able to induce somatic embryo formation	did enhance somatic embryo formation	about 0.4 μM
